ChEMBL document CHEMBL1201862, “PubChem BioAssay data set” (2004)
Activity calls are given as the source filed them.

Tests used:
[1] = molecular target: Delta-type opioid receptor (Homo sapiens, UniProt P41143); assay: Late-stage results from the probe development effort to identify antagonists of OPRK1: fluorescence-based cell-based dose response OPRD1 counterscreen.; format: functional
Mu-type opioid receptor = Mu-type opioid receptor (Homo sapiens, UniProt P35372); assay: Late-stage results from the probe development effort to identify antagonists of OPRK1: luminescence-based cell-based dose response OPRM1 counterscreen.; format: functional
[2] = luciferase reporter signal suppression in cells – H4 neuroglioma cells, luminescence, dose response (AID 1990); format: functional, cell-based
[3] = Luminescence Cell-Based Dose Response HTS to Identify Inhibitors of 5'UTR Stem-Loop Driven Prion Protein mRNA Translation in H4 Neuroglioblastoma Cells. [Related pubchem assays: 1827 (Project Summary), 1813 (Primary HTS)]; format: functional
[4] = alpha-synuclein stem-loop luciferase translation blockers – H4 neuroglioma cells, luminescence, confirmation (AID 1988); format: functional, cell-based
cells [5] = assay: cells
Major prion protein = Major prion protein (Homo sapiens, UniProt P04156); format: functional, cell-based
cells [6] = assay: cells; remark: listed apart in the source

COC(=O)c1cc(Br)cnc1N1CCC(NC2CCOCC2)CC1
IC50 [1]: > 50 µM (inactive) | IC50 (Mu-type opioid receptor): 50 µM (inactive)

CCOc1ccccc1/N=c1\oc2cc(O)ccc2cc1C(=O)NCC1CCCO1 (stereo not drawn)
EC50 [2]: > 120 µM (not active) | EC50 [3]: > 120 µM (not active) | EC50 [4]: > 120 µM (not active) | AC50 (cells [5]): > 70 µM (inactive)

CCCc1nc(SCC(=O)NNC(=O)c2ccc(OC)cc2)c2ccccc2n1
IC50 (Major prion protein): 1.52 µM (active) | IC50 (cells [6]): > 138 µM (inactive)
